Results published in patent US12637461B2, “Compounds for the activation of AMPK” (PFIZER INC., priority 2022, dated 2026).

Target: T1, human AMPK α2β2γ3 (Homo sapiens, UniProt O43741+P54646+Q9UGI9)
T1 construct: expressed in transfected cells; host or cells: HEK293AD cells, MaxCyte bulk electroporation
Assay: Primary cellular assay: γ3 associated phospho-Thr172 AMPK detection (custom pAMPK Surefire AlphaLISA) in α2β2γ3 bulk transiently transfected HEK293 cells
Assay type: cell-based
Conditions: activation of human AMPK α2β2γ3 (γ3 pThr172 AMPK signal) in transiently transfected HEK293 cells, 20 minutes compound incubation; for Emax: 20 min, geometric mean of the asymptotic max, read-out: Assay GMean Asy. Max (%); for EC50: geometric mean EC50, read-out: Assay GMean EC50
Outline: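 Transiently co-transfected (α2/β2/γ3 plasmids, electroporation) HEK293AD cells, plated 2 days in low-glucose DMEM+10% FBS, treated 20 min with compounds (11-point half-log dilutions). Lysates read by modified AlphaLISA capturing γ3 with pThr172 antibody detection. % effect relative to 30 μM HPE and DMSO; EC50 and Emax from curve fit.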

T1 sequence (P54646 whole entry): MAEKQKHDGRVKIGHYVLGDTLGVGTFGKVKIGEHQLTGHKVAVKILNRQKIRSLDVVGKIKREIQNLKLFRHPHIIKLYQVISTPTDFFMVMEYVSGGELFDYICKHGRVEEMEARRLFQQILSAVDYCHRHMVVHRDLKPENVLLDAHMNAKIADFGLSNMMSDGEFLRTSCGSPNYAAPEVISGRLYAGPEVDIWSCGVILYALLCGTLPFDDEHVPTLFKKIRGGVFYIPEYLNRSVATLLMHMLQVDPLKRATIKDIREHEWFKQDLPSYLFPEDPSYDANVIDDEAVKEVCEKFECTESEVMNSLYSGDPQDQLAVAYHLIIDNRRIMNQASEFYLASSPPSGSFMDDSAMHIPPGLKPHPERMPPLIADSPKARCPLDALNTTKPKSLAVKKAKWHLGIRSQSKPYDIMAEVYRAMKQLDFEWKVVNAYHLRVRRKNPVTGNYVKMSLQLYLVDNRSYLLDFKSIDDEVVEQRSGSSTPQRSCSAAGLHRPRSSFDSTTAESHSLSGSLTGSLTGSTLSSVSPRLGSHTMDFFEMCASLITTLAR
T1 sequence (O43741 whole entry): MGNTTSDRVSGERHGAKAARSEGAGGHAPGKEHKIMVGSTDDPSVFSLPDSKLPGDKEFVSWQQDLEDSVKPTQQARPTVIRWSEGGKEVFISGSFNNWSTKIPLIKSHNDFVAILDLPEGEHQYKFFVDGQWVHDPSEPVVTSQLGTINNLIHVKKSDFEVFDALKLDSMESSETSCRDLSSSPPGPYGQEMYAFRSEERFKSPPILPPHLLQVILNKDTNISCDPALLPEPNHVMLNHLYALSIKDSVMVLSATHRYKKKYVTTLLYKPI
T1 sequence (Q9UGI9 whole entry): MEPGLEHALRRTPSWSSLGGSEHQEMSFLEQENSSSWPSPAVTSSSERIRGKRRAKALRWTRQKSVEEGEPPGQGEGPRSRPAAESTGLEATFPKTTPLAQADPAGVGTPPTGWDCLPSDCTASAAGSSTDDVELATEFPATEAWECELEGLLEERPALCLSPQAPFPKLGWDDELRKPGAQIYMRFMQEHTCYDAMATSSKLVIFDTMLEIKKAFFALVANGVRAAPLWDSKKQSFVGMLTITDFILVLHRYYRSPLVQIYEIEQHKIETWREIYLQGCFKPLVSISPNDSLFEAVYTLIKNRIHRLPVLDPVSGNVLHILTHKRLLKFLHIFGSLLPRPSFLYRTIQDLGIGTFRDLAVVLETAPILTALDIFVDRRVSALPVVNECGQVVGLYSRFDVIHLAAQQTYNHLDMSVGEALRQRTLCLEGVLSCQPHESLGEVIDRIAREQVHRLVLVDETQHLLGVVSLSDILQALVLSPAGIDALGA

Emax	EC50	SMILES
139%	19.8 nM	CN1CCCC(N2CC(Nc3ncc4c(c3F)[C@@](C)(c3cccc(Cl)c3F)CN(c3nn(C)cc3F)C4=O)C2)C1=O (single isomer, unassigned) [compound 71]
160%	22.7 nM	CN(C(=O)CN1CC(Nc2ncc3c(c2F)[C@@](C)(c2cccc(Cl)c2F)CN(c2nn(C)cc2F)C3=O)C1)C1CC1 [Example 11, 2-(3-{[(5R)-5-(3-Chloro-2-fluorophenyl)-4-fluoro-7-(4-fluoro-1-methyl-1H-pyrazol-3-yl)-5-methyl-8-oxo-5,6,7,8-tetrahydro-2,7-naphthyridin-3-yl]amino}azetidin-1-yl)-N-cyclopropyl-N-methylacetamide]
123%	144 nM	Cn1cc(F)c(N2C[C@](C)(c3cccc(Cl)c3F)c3c(cnc(NC4CN(C(=O)C5(O)CCC5)C4)c3F)C2=O)n1 [Example 7, (4R)-4-(3-Chloro-2-fluorophenyl)-5-fluoro-2-(4-fluoro-1-methyl-1H-pyrazol-3-yl)-6-{[1-(1-hydroxycyclobutane-1-carbonyl)azetidin-3-yl]amino}-4-methyl-3,4-dihydro-2,7-naphthyridin-1(2H)-one]
59.3%	56.6 nM	Cn1cc(F)c(N2C[C@](C)(c3cccc(Cl)c3F)c3c(cnc(NC4CN(C(=O)CN[C@@H]5CCOC5)C4)c3F)C2=O)n1 [compound 76, (4R)-4-(3-chloro-2-fluorophenyl)-5-fluoro-2-(4-fluoro-1-methyl-1H-pyrazol-3-yl)-4-methyl-6-{[1-{{[(3R)-oxolan-3-yl]amino}acetyl)azetidin-3-yl]amino}-3,4-dihydro-2,7-naphthyridin-1(2H)-one]
